Assay [1] has as its system alpha9/alpha10 heteromeric acetylcholine receptor. Nature of the assay: Block of the acetylcholine receptor of the inner ear (stated finding, no method given).
In the next assay the test system is outer hair cells (OHCs). The assay is described as follows: Whole-cell patch-clamp recordings of inhibitory postsynaptic currents on outer hair cells. It counts as cell-based, Wistar rats. The settings on record: apamine 10 nM; OHCs held at −64 mV, high extracellular K+.

Where no end group is shown, it is not given here.

Protocol for outer hair cells (OHCs): The preparation was performed in a solution containing (in mM) 144 NaCl, 5.8 KCl, 0.1 CaCl2, 2.1 MgCl2, 10 HEPES, 0.7 Na2HPO4, 5.6 glucose, pH adjusted to 7.3 with NaOH. For recordings, OHCs located between half and one turn from the apex of the cochlea were chosen. If necessary, supporting cells were removed with gentle suction from a cleaning pipette carefully avoiding mechanical disturbance of the efferent nerve terminals.
Whole-cell patch-clamp recordings were performed with an Axopatch 200B amplifier (Axon Instruments, Foster City, Calif.) at room temperature (22-25° C.). Electrodes were pulled from quartz glass, had resistances of 2-3 MΩ and were filled with intracellular solution (in mM): 135 KCl, 3.5 MgCl2, 0.1 CaCl2, 5 EGTA, 5 HEPES, 2.5 Na2ATP. The pH of the solution was adjusted to pH 7.3 with KOH. Membrane potential was corrected for the electrode junction potential (−4 mV). Whole-cell series resistance ranged from 4 to 9 MΩ and was not compensated. Currents were filtered at 1 kHz and sampled at 5 kHz.
The specimen were continuously superfused with extracellular solution (in mM: 144 NaCl, 5.8 KCl, 2 CaCl2, 0.9 MgCl2, 10 HEPES, 0.7 Na2HPO4, 5.6 glucose, pH adjusted to 7.3 with NaOH). Chemicals as well as depolarizing solutions were applied via a glass capillary (diameter approximately 80 μm) positioned close to the organ of Corti. […]

In the case of `CC12CC3CC(C)(C1)CC(N)(C3)C2` [memantine, 3.5-dimethyl-1-adamantan-amine], the “block of the acetylcholine receptor” value in assay [1] was “blocked efficiently”. Take “apamine (CNCKAPETALCARRCQQH; not fully specified (C-terminus, bridges); cysteine pairing not given here; UniProt P01500 28-45, looked up)”: the “inhibition of postsynaptic currents (IPSCs)” value with outer hair cells (OHCs) is “complete inhibition”.
